Usually Ki stands for the dissociation constant of the complex between target and ligand, obtained from inhibition or displacement.

Counter-ions that a name gives are not always drawn.

The target in the test is T1, thrombin (Homo sapiens, UniProt P00734).
T1 construct: Thrombin used in this test was prepared from human plasma; from tissue; host or cells: human plasma
The test is described as follows: In vitro enzyme assay for determining thrombin inhibition constants (Chromozym TH substrate). The test is classed as biochemical. The note with it: thrombin prepared from human plasma; Dixon plot; pH 7.8; read-out: Inhibition constant Ki. As for the experimental part:
The activity of thrombin was measured spectrophotometrically using tosyl-Gly-Pro-Arg-p-nitroanilide acetate (Chromozym TH, Boehringer Mannheim) as a substrate. […] Each compound was dissolved in DMSO to make a 1 mM stock solution and dilutions were made thereof with assay buffer (0.1 M TrisHCl, 0.15 M NaCl, 0.1% polyethylene glycol 8000, pH 7.8). Different concentrations of inhibitor were mixed with 0.3 NIH units of thrombin in 0.8 mL of the buffer. The mixture was incubated for 10 min at room temperature before adding 0.2 mL of the substrate to a final concentration of 20 μM. […] A graph for the reciprocal value of initial velocity to the inhibitor concentration was derived from progress curves by fitting the data using a linear regression program. […]
Turning to `N=C(N)c1ccc(CNC(=O)[C@@H]2CCCN2C(=O)[C@@H](CC2CCCCC2)NS(N)(=O)=O)cc1` [Compound 7, N-aminosulfonyl-D-cyclohexylalanyl-L-prolyl-[(4-amidinophenyl)methyl]amide.TFA], the Ki was determined as 660 pM.

Take `N=C(N)c1ccc(CNC(=O)[C@@H]2CCCN2C(=O)[C@H](NS(N)(=O)=O)C(c2ccccc2)c2ccccc2)c(F)c1` [Compound 16, N-aminosulfonyl-D-diphenylalanyl-L-prolyl-[(4-amidino-2-fluorophenyl)methyl]amide.TFA]: the inhibition constant (Ki) worked out at 16 pM.

On to `COC(=O)N[C@@H](C(=O)N1CC[C@H]1C(=O)NCc1ccc(C(=N)N)cc1)C(c1ccccc1)c1ccccc1` [Compound 28, N-methoxycarbonyl-D-diphenylalanyl-L-azetidine-2-carboxyl-[(4-amidinophenyl)methyl]amide.TFA], for which the inhibition constant Ki was determined as 60 pM.

On to `COC(=O)N[C@@H](C(=O)N1CCC[C@H]1C(=O)NCc1ccc(C(=N)N)cc1)C(C1CCCCC1)C1CCCCC1` [Compound 27, N-methoxycarbonyl-D-dicyclohexylalanyl-L-prolyl-[(4-amidinophenyl)methyl]amide.TFA], for which the Ki was determined as 20 pM.

As to `NCc1ccc(CNC(=O)[C@@H]2CCCN2C(=O)[C@H](NS(N)(=O)=O)C(c2ccccc2)c2ccccc2)cn1` [Compound 10, N-aminosulfonyl-D-diphenylalanyl-L-prolyl-(6-aminomethyl-3-picolyl)amide], the Ki was 4200 pM.

On to `Cc1cc(CNC(=O)[C@@H]2CCCN2C(=O)[C@H](NCC(=O)O)C(c2ccccc2)c2ccccc2)ccc1C(=N)N` [Compound 48, N-carboxymethyl-D-diphenylalanyl-L-prolyl-[(4-amidino-3-methylphenyl)methyl]amide.2TFA], for which the inhibition constant Ki is 220 pM.

For the molecule `N=C(N)c1ccc(CNC(=O)[C@@H]2CCCN2C(=O)[C@H](NCC(=O)O)C(c2ccccc2)c2ccccc2)cn1` [Compound 46, N-carboxymethyl-D-diphenylalanyl-L-prolyl-(6-amidino-3-picolyl)amide.2TFA], the Ki came to 30 pM.

Consider `CCCOC(=O)N[C@@H](C(=O)N1CCC[C@H]1C(=O)NCc1ccc(C(=N)N)cc1)C(c1ccccc1)c1ccccc1` [Compound 23, N-propyloxycarbonyl-D-diphenylalanyl-L-prolyl-[(4-amidinophenyl)methyl]amide.TFA], for which the inhibition constant (Ki) is 35 pM.

In the case of `COC(=O)N[C@@H](C(=O)N1CCC[C@H]1C(=O)NCc1ccc(C(=N)N)cn1)C(c1ccccc1)c1ccccc1` [Compound 33, N-methoxycarbonyl-D-diphenylalanyl-L-prolyl-(5-amidino-2-picolyl)amide.TFA], the Ki came out at 40 pM.

In the case of `CCOC(=O)CN[C@@H](C(=O)N1CCC[C@H]1C(=O)NCc1ccc(C(N)=NO)cc1)C(c1ccccc1)c1ccccc1` [Compound 49, N-(ethoxycarbonyl)methyl-D-diphenylalanyl-L-prolyl-[(4-hydroxyamidinophenyl)methyl]amide.TFA], the Ki was found to be 15700 pM.

In the case of `N=C(N)c1ccc(CNC(=O)[C@@H]2CCCN2C(=O)[C@H](Nc2ccccc2)C(c2ccccc2)c2ccccc2)cc1` [Compound 50, N-phenyl-D-diphenylalanyl-L-prolyl-[(4-amidinophenyl)methyl]amide.TFA], the Ki stood at 45 pM.

(Values after patent US6774110B2, “Orally available peptidic thrombin inhibitors” (LG Life Sciences Ltd., priority 2001, dated 2004).)
